Measured values published in the supplement of paper PMC10307832.

Columns and labels:
Assay in all cases: relative viability (nuclei count vs DMSO), 5 days (fraction); higher = more cells survive
[1] = test system: A549
Procedure, shortened: (§1)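 A single step with final 0.05% Triton X-100, 1% formaldehyde and 1 ug/ml Hoechst fixed the cells and stained nuclei 5 days after treatment. Lung cancer cell lines in 1536-well plates had been treated by pin tool the day after seeding with one drug alone or a fixed anchor-drug dose plus five library-drug doses (not always all listed) in √10 steps, and nuclei were counted on 4× images. Relative viability is the ratio of nuclei in treated wells to nuclei in vehicle wells, taken as the median of duplicate plates.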

[2] = test system: Calu-6
Procedure, shortened: as §1

[3] = test system: EBC-1
Procedure, shortened: as §1

[4] = test system: IA-LM
Procedure, shortened: as §1

[5] = test system: LCLC-97TM1
Procedure, shortened: as §1

[6] = test system: NCI-H1299
Procedure, shortened: as §1

[7] = test system: NCI-H1355
Procedure, shortened: as §1

[8] = test system: NCI-H1623
Procedure, shortened: as §1

[9] = test system: NCI-H1703
Procedure, shortened: as §1

[10] = test system: NCI-H1993
Procedure, shortened: as §1

[11] = test system: NCI-H23
Procedure, shortened: as §1

[12] = test system: NCI-H322M
Procedure, shortened: as §1

[13] = test system: NCI-H596
Procedure, shortened: as §1

[14] = test system: UMC-11
Procedure, shortened: as §1

Nc1ccn([C@@H]2O[C@H](CO)[C@@H](O)[C@@H]2O)c(=O)n1 [Cytarabine] + COc1cc2c(Oc3ccc(NC(=O)C4(C(=O)Nc5ccc(F)cc5)CC4)cc3F)ccnc2cc1OCCCN1CCOCC1 [Foretinib] (partner 0.25 µM) was tested, and the relative viability ([1]; first compound 0.005 µM) was 0.622, the relative viability ([1]; first compound 0.01581 µM) was 0.629 and the relative viability ([1]; first compound 0.05 µM) was 0.336. The relative viability ([1]; first compound 0.1581 µM) was 0.071, the relative viability ([1]; first compound 0.5 µM) was 0.0358 and the relative viability ([2]; first compound 0.005 µM) was 0.796. The relative viability ([2]; first compound 0.01581 µM) was 0.702, the relative viability ([2]; first compound 0.05 µM) was 0.707 and the relative viability ([2]; first compound 0.1581 µM) was 0.405. The relative viability ([2]; first compound 0.5 µM) was 0.233, the relative viability ([3]; first compound 0.005 µM) was 0.0948 and the relative viability ([3]; first compound 0.01581 µM) was 0.0902. The relative viability ([3]; first compound 0.05 µM) was 0.0964, the relative viability ([3]; first compound 0.1581 µM) was 0.0746 and the relative viability ([3]; first compound 0.5 µM) was 0.076. The relative viability ([4]; first compound 0.005 µM) was 0.802, the relative viability ([4]; first compound 0.01581 µM) was 1.05 and the relative viability ([4]; first compound 0.05 µM) was 0.916. The relative viability ([4]; first compound 0.1581 µM) was 0.592, the relative viability ([4]; first compound 0.5 µM) was 0.246 and the relative viability ([5]; first compound 0.005 µM) was 0.924. For the same compound, the relative viability ([5]; first compound 0.01581 µM) was 0.814, the relative viability ([5]; first compound 0.05 µM) was 0.749 and the relative viability ([5]; first compound 0.1581 µM) was 0.469. It also gave a relative viability ([5]; first compound 0.5 µM) of 0.485, a relative viability ([6]; first compound 0.005 µM) of 1.15 and a relative viability ([6]; first compound 0.01581 µM) of 1.13. For the same compound, the relative viability ([6]; first compound 0.05 µM) was 1.05, the relative viability ([6]; first compound 0.1581 µM) was 1.12 and the relative viability ([6]; first compound 0.5 µM) was 1.16. It also gave a relative viability ([7]; first compound 0.005 µM) of 0.976, a relative viability ([7]; first compound 0.01581 µM) of 0.912 and a relative viability ([7]; first compound 0.05 µM) of 0.911. It also gave a relative viability ([7]; first compound 0.1581 µM) of 0.501, a relative viability ([7]; first compound 0.5 µM) of 0.444 and a relative viability ([8]; first compound 0.005 µM) of 0.695. For the same compound, the relative viability ([8]; first compound 0.01581 µM) was 0.545, the relative viability ([8]; first compound 0.05 µM) was 0.375 and the relative viability ([8]; first compound 0.1581 µM) was 0.463. For the same compound, the relative viability ([8]; first compound 0.5 µM) was 0.577, the relative viability ([9]; first compound 0.005 µM) was 0.251 and the relative viability ([9]; first compound 0.01581 µM) was 0.273. It also gave a relative viability ([9]; first compound 0.05 µM) of 0.253, a relative viability ([9]; first compound 0.1581 µM) of 0.195 and a relative viability ([9]; first compound 0.5 µM) of 0.158. The relative viability ([10]; first compound 0.005 µM) was 0.843, the relative viability ([10]; first compound 0.01581 µM) was 0.889 and the relative viability ([10]; first compound 0.05 µM) was 0.726. The relative viability ([10]; first compound 0.1581 µM) was 0.485, the relative viability ([10]; first compound 0.5 µM) was 0.468 and the relative viability ([11]; first compound 0.005 µM) was 0.784. For the same compound, the relative viability ([11]; first compound 0.01581 µM) was 0.414, the relative viability ([11]; first compound 0.05 µM) was 0.43 and the relative viability ([11]; first compound 0.1581 µM) was 0.285. The relative viability ([11]; first compound 0.5 µM) was 0.256, the relative viability ([12]; first compound 0.005 µM) was 0.827 and the relative viability ([12]; first compound 0.01581 µM) was 0.761. It also gave a relative viability ([12]; first compound 0.05 µM) of 0.677, a relative viability ([12]; first compound 0.1581 µM) of 0.464 and a relative viability ([12]; first compound 0.5 µM) of 0.336. The relative viability ([13]; first compound 0.005 µM) was 0.923, the relative viability ([13]; first compound 0.01581 µM) was 0.723 and the relative viability ([13]; first compound 0.05 µM) was 0.542. It also gave a relative viability ([13]; first compound 0.1581 µM) of 0.44, a relative viability ([13]; first compound 0.5 µM) of 0.336 and a relative viability ([14]; first compound 0.005 µM) of 0.653. The relative viability ([14]; first compound 0.01581 µM) was 0.63, the relative viability ([14]; first compound 0.05 µM) was 0.45 and the relative viability ([14]; first compound 0.1581 µM) was 0.349. It also gave a relative viability ([14]; first compound 0.5 µM) of 0.261.

COc1cc2nccc(Oc3ccc(NC(=O)Nc4cc(C)on4)c(Cl)c3)c2cc1OC [Tivozanib] + COc1cc2c(Oc3ccc(NC(=O)C4(C(=O)Nc5ccc(F)cc5)CC4)cc3F)ccnc2cc1OCCCN1CCOCC1 [Foretinib] (partner 0.25 µM) was tested, and the relative viability ([1]; first compound 0.005 µM) was 0.804, the relative viability ([1]; first compound 0.01581 µM) was 0.987 and the relative viability ([1]; first compound 0.05 µM) was 1.01. It also gave a relative viability ([1]; first compound 0.1581 µM) of 0.976, a relative viability ([1]; first compound 0.5 µM) of 1.04 and a relative viability ([2]; first compound 0.005 µM) of 0.896. It also gave a relative viability ([2]; first compound 0.01581 µM) of 0.845, a relative viability ([2]; first compound 0.05 µM) of 0.929 and a relative viability ([2]; first compound 0.1581 µM) of 0.824. For the same compound, the relative viability ([2]; first compound 0.5 µM) was 0.876, the relative viability ([3]; first compound 0.005 µM) was 0.103 and the relative viability ([3]; first compound 0.01581 µM) was 0.104. It also gave a relative viability ([3]; first compound 0.05 µM) of 0.11, a relative viability ([3]; first compound 0.1581 µM) of 0.0953 and a relative viability ([3]; first compound 0.5 µM) of 0.0941. The relative viability ([4]; first compound 0.005 µM) was 1.21, the relative viability ([4]; first compound 0.01581 µM) was 1.15 and the relative viability ([4]; first compound 0.05 µM) was 1.24. It also gave a relative viability ([4]; first compound 0.1581 µM) of 1.32, a relative viability ([4]; first compound 0.5 µM) of 0.94 and a relative viability ([5]; first compound 0.005 µM) of 0.904. It also gave a relative viability ([5]; first compound 0.01581 µM) of 0.939, a relative viability ([5]; first compound 0.05 µM) of 0.92 and a relative viability ([5]; first compound 0.1581 µM) of 0.982. The relative viability ([5]; first compound 0.5 µM) was 0.928, the relative viability ([6]; first compound 0.005 µM) was 1.05 and the relative viability ([6]; first compound 0.01581 µM) was 1.09. For the same compound, the relative viability ([6]; first compound 0.05 µM) was 1.11, the relative viability ([6]; first compound 0.1581 µM) was 1.18 and the relative viability ([6]; first compound 0.5 µM) was 1.04. The relative viability ([7]; first compound 0.005 µM) was 0.937, the relative viability ([7]; first compound 0.01581 µM) was 0.978 and the relative viability ([7]; first compound 0.05 µM) was 0.975. For the same compound, the relative viability ([7]; first compound 0.1581 µM) was 0.929, the relative viability ([7]; first compound 0.5 µM) was 0.966 and the relative viability ([8]; first compound 0.005 µM) was 0.821. The relative viability ([8]; first compound 0.01581 µM) was 0.989, the relative viability ([8]; first compound 0.05 µM) was 0.938 and the relative viability ([8]; first compound 0.1581 µM) was 0.888. It also gave a relative viability ([8]; first compound 0.5 µM) of 0.914, a relative viability ([9]; first compound 0.005 µM) of 0.335 and a relative viability ([9]; first compound 0.01581 µM) of 0.385. For the same compound, the relative viability ([9]; first compound 0.05 µM) was 0.384, the relative viability ([9]; first compound 0.1581 µM) was 0.33 and the relative viability ([9]; first compound 0.5 µM) was 0.405. For the same compound, the relative viability ([10]; first compound 0.005 µM) was 0.632, the relative viability ([10]; first compound 0.01581 µM) was 0.712 and the relative viability ([10]; first compound 0.05 µM) was 0.757. The relative viability ([10]; first compound 0.1581 µM) was 0.733, the relative viability ([10]; first compound 0.5 µM) was 0.722 and the relative viability ([11]; first compound 0.005 µM) was 0.907. For the same compound, the relative viability ([11]; first compound 0.01581 µM) was 1.04, the relative viability ([11]; first compound 0.05 µM) was 1.04 and the relative viability ([11]; first compound 0.1581 µM) was 0.942. The relative viability ([11]; first compound 0.5 µM) was 1.1, the relative viability ([12]; first compound 0.005 µM) was 0.843 and the relative viability ([12]; first compound 0.01581 µM) was 1.01. The relative viability ([12]; first compound 0.05 µM) was 0.989, the relative viability ([12]; first compound 0.1581 µM) was 0.926 and the relative viability ([12]; first compound 0.5 µM) was 0.969. The relative viability ([13]; first compound 0.005 µM) was 0.697, the relative viability ([13]; first compound 0.01581 µM) was 0.915 and the relative viability ([13]; first compound 0.05 µM) was 0.846. For the same compound, the relative viability ([13]; first compound 0.5 µM) was 0.879, the relative viability ([14]; first compound 0.005 µM) was 1.07 and the relative viability ([14]; first compound 0.01581 µM) was 1.04. It also gave a relative viability ([14]; first compound 0.05 µM) of 1.1 and a relative viability ([14]; first compound 0.5 µM) of 1.01.
